Measured values: patent US5567738A, “Use of 2-(4-(4-chlorophenyl)cyclohexyl)-3-hydroxy-1,4-Naphthoquinone for the treatment of cancer” (Glaxo Wellcome Inc., priority 1992, dated 1996)

How the values were obtained:
Format in all cases: cell-based
tumour cell lines = assay: Activity against tumour cell lines in vitro, all cell lines tested (proliferative assays); conditions: at 1001 μM concentration (so in the source)
Procedure: (§1) Activity Against Tumour Cell Lines In Vitro The activity of the test compound was evaluated using proliferative assays against a number of different turnout cell lines in vitro.

HT10801C = assay: Activity against human fibrosarcoma cells in vitro, HT10801C
Procedure: (§2) Activity Against Human Fibrosarcoma Cells In Vitro The activities of the test compound and of a soluble carbamate derivative thereof against two cell lines derived from human fibrosarcoma cells were measured.

HT1080SCC2 = assay: Activity against human fibrosarcoma cells in vitro, HT1080SCC2
Procedure: as §2

[1] = tested on: two cell lines derived from human fibrosarcoma cells; assay: Activity against two cell lines derived from human fibrosarcoma cells in vitro; conditions: both cell lines
Procedure: as §2

[2] = tested on: P3888D1 (Mouse Leukaemia); assay: Proliferative assay against tumour cell line P3888D1 in vitro; conditions: read-out: Activity (% Growth Inhibition)
Procedure: as §1

[3] = tested on: WiDr (Human colon adenocarcinoma); assay: Proliferative assay against tumour cell line WiDr in vitro; conditions: read-out: Activity (% Growth Inhibition)
Procedure: as §1

[4] = tested on: HCT-116 (Human colon carcinoma); assay: Proliferative assay against tumour cell line HCT-116 in vitro; conditions: read-out: Activity (% Growth Inhibition)
Procedure: as §1

[5] = tested on: DLD-1 (Human colon adenocarcinoma); assay: Proliferative assay against tumour cell line DLD-1 in vitro; conditions: read-out: Activity (% Growth Inhibition)
Procedure: as §1

[6] = tested on: A549 (Human lung carcinoma); assay: Proliferative assay against tumour cell line A549 in vitro; conditions: read-out: Activity (% Growth Inhibition)
Procedure: as §1

[7] = tested on: carcinoma, adenocarcinoma and fibrosarcoma cells; assay: Activity against tumour cells (general statement)

IC50 (HT10801C)	IC50 (HT1080SCC2)	SMILES	active against all the cell lines tested (tumour cell lines)	activity against human fibrosarcoma cell lines [1]	inhibition at 100 µM [2]	inhibition at 100 µM [3]	inhibition at 100 µM [4]	inhibition at 100 µM [5]	inhibition at 100 µM [6]	activity against tumour cells [7]
15 µM	11 µM	O=C1C(O)=C([C@H]2CC[C@H](c3ccc(Cl)cc3)CC2)C(=O)c2ccccc21 [Test Compound, 2-[trans-4-(4-chlorophenyl)cyclohexyl]-3-hydroxy-1,4-naphthoquinone]	active	active	92.3%	79.4%	93.8%	94.2%	86.6%	–
–	–	O=C1C(O)=C(C2CCC(c3ccc(Cl)cc3)CC2)C(=O)c2ccccc21 (stereo not shown) [compound of formula (II), 2-[4-(4-chlorophenyl)cyclohexyl]-3-hydroxy-1,4-naphthoquinone]	–	–	–	–	–	–	–	exhibits activity against tumour cells
